The test system of assay [1] is MRSA USA300. Briefly: Killing kinetics. The settings on record: 2×MIC. The assay is classed as cell-based, Staphylococcus aureus. How it is done: MRSA USA300 was grown to the exponential phase (OD600˜0.3) in MHB. The culture was diluted to OD600 0.001 (˜10^5 CFU/mL). One milliliter of bacterial suspension was then mixed with LL-37mini or daptomycin at 2×MIC and incubated at 37° C. After 15, 30, 60, 90, and 120 minutes of incubation, 50 μL was taken and serially diluted with 1×PBS. Then, 50 μL of the diluted suspension was plated on mannitol salt agar plates (NEOGEN, MI). The plates were incubated overnight at 37° C. for bacterial CFU determination the next day.
For bacterial killing kinetics study, MRSA USA300 and P. aeruginosa E411-17 was grown to the exponential phase (OD600˜0.3) in MHB. The culture was diluted to OD600 0.001 (˜10^5 CFU/mL). One milliliter of bacterial suspension was then mixed with the peptide, colistin or daptomycin at 4×MIC and incubated at 37° C. After 15, 30, 60, 90, and 120 minutes incubation, 50 μL was taken and serially diluted with 1×PBS. Then, 50 μL of the diluted suspension was plated on Mannitol Salt Agar (MRSA USA300) or Cetrimide Agar (P. aeruginosa E411-17) plates (NEOGEN, MI). The plates were incubated overnight at 37° C. for bacterial CFU count the next day.

The test system of assay [2] is S. aureus USA300 biofilms in murine wounds. The assay is described as follows: In vivo biofilm assay, murine wound model. On the set-up: species or system BALB/c mice. The settings on record: topical, 24 h. How it is done:
Preparation of Inoculum. An overnight culture of S. aureus USA300 LAC was inoculated in fresh MHB and incubated at 37° C. for 3 hours. The suspension was centrifuged at 3000 g for 5 minutes, and the supernatant was discarded. The bacteria were resuspended in 1×PBS, and the OD600 was adjusted to 0.6 (˜3×10^7 CFU/mL).
Experimental Animals. An alternative murine wound model has been established which is slightly different from other studies (Su, et al. (2019) Mol. Pharmaceutics 16:2011-2020; Su, et al. (2023) J. Controlled Release 356:131-141). Female BALB/c mice (3-4 weeks, ˜20 g) were fed with standardized food (Teklad Laboratory diet for rodents) and water (Hydropac Alternative Watering System) ad libitum. Mice were kept in ventilated cages (IVCs) at a temperature of 20-24° C., a humidity of 50-60%, 60 air exchanges per hour, and a 12/12 hour light/dark cycle. All materials, including IVCs, lids, feeders, bottles, bedding, and water, were autoclaved before use. All animal manipulations were performed in a class II laminar flow biological safety cabinet. The study was approved by the Institutional Animal Care and Use Committee (IACUC) of UNMC (Protocol no. 22-015-08-FC).
In Vivo Biofilm Assay. Mice were anesthetized by intraperitoneal injection of ketamine-xylazine (100 mg/kg+10 mg/kg). […] Finally, the plates were incubated at 37° C. for 20 hours and the CFUs were counted. […]

Assay [3] relates to MRSA USA300. The assay is described as follows: microbe, parasite or virus in culture. The settings on record: 17 passages at sub-MIC. The format is cell-based, Staphylococcus aureus. Here is the method: The experiment was conducted as described (Lakshmaiah et al. (2020) Proc. Natl. Acad. Sci., 117:19446-19454). Briefly, MRSA USA300 was grown to the exponential phase in MHB and diluted to OD600 0.001 (˜10^5 CFU/mL). Aliquots of 90 μL were added to a 96-well polystyrene microplate (Costar, Corning, NY) containing 10 μL of serially diluted LL-37mini, nafcillin, or daptomycin. After overnight incubation at 37° C., the plates were read at 600 nm using a ChroMate™ microplate reader (GMI, Ramsey, MN). Untreated bacterial culture and medium were included as untreated control and blank, respectively. The MIC is the lowest peptide concentration that inhibited the bacterial growth. The wells with sub-MIC levels of the peptides that retained growth approximately half the growth of the control wells were reinoculated in fresh MHB with sub-MIC concertation of peptides or antibiotics to attain exponential phase for MIC determination. In total, 17 passages of the bacterial cultures were conducted. A rapid increase in MIC is an indication of antibiotic resistance.

Where no end group is shown, it is not given here.

With RRWWRWWR-NH2 [W543], the “time at which CFU was not detected (killing)” value in the assay on MRSA USA300 [1] was found to be 120 min. In assay [2] (4.4 mg/kg per wound), the “bacterial CFU decrease” value was found to be 2 log. The resistance development entry with MRSA USA300 [3] is “essentially no change in the MIC values”.
`CCCCCCCCCC(=O)N[C@@H](Cc1c[nH]c2ccccc12)C(=O)N[C@H](CC(N)=O)C(=O)N[C@@H](CC(=O)O)C(=O)N[C@@H]1C(=O)NCC(=O)N[C@@H](CCCN)C(=O)N[C@@H](CC(=O)O)C(=O)N[C@H](C)C(=O)N[C@@H](CC(=O)O)C(=O)NCC(=O)N[C@H](CO)C(=O)N[C@@H]([C@H](C)CC(=O)O)C(=O)N[C@@H](CC(=O)c2ccccc2N)C(=O)O[C@@H]1C` [Daptomycin]: the time to kill in the assay with MRSA USA300 [1] amounted to 2 h. Moreover, the “reduction of bacterial burden” value in assay [2] (10 mg/kg per wound) is listed as around 3 logs. Moreover, the resistance development entry in the assay with MRSA USA300 [3] is listed as “did not develop resistance”.

The values above are taken from US20250101062A1, “ANTIMICROBIAL PEPTIDES” (Board of Regents of the University of Nebraska, priority 2023, published 2025).
